Experimental data from patent US20260306527A1, “PRMT INHIBITOR COMPOUNDS AND THE USES THEREOF” (Purdue Research Foundation, priority 2023, published 2026).

Experiments:
PRMT4 [1] = experiment: radioactive assay (Reaction Biology Corp.), inhibition of PRMT4; assay type: biochemical
Method: (§1) Next, the inhibition activity of the library was investigated for five PRMT members from type I PRMTs.
(§2) The PRMT 4, 6 and 8 methylation assays were performed by Reaction Biology corp.

PRMT4 [2] = target: T1, PRMT4 (Homo sapiens, UniProt Q86X55); experiment: as above; assay type: biochemical
T1 sequence (Q86X55 1-608): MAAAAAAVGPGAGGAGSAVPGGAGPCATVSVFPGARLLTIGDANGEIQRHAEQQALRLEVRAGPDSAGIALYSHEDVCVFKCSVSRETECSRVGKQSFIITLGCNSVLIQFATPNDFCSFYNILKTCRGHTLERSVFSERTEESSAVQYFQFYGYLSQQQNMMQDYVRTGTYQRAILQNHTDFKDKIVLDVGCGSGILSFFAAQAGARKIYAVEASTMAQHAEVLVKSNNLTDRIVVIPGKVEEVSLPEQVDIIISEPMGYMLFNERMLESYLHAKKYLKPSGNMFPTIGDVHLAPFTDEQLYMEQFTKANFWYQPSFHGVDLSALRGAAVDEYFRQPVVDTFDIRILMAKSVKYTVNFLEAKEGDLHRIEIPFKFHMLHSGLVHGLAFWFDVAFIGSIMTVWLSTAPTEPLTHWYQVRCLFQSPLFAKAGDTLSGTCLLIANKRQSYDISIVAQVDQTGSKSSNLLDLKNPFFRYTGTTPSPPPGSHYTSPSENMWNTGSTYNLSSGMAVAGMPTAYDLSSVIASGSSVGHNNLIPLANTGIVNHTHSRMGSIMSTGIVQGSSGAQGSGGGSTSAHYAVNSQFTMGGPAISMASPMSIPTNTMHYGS
Method: as §1, §2

PRMT1 [3] = target: T2, PRMT1 (Homo sapiens, UniProt Q99873); experiment: SAHH-coupled fluorescence assay, inhibition of PRMT1; assay type: biochemical
T2 construct: made in house
T2 sequence (Q99873 whole entry, species assumed): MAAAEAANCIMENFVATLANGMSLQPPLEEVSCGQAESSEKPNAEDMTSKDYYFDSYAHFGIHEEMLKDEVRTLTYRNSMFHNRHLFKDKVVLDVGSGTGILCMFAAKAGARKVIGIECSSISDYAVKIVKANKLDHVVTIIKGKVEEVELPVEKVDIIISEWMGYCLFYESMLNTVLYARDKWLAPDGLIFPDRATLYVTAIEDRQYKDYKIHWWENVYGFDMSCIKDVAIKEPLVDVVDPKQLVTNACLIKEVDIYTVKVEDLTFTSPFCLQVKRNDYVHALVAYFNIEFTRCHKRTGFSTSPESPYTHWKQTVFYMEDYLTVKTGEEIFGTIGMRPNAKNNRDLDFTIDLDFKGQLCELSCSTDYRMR
Summary of the method: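 PRMT1 (0.1 μM) was run with 10 μM AdoMet, 5 μM SAHH and 10 μM ThioGlo4 in 2.5 mM HEPES pH 7.0, 25 mM NaCl, 25 μM EDTA, 50 μM TCEP and 0.01% Triton X-100. Fluorescence (ex 400/em 465 nm) was monitored for 15 min. Assays were done in duplicate.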

PRMT3 [4] = target: T3, PRMT3 (Homo sapiens, UniProt O60678); experiment: thermal shift assay PRMT3; assay type: binding; design: PRMT3 (residues 211-531) was cloned into the pET28a-MHL expression vector; tag of the pET28a-MHL vector (not described); made in house; host or cells: Escherichia coli BL21(DE3); settings: 100 μM compound, 20 μM protein
T3 sequence (O60678 211-531): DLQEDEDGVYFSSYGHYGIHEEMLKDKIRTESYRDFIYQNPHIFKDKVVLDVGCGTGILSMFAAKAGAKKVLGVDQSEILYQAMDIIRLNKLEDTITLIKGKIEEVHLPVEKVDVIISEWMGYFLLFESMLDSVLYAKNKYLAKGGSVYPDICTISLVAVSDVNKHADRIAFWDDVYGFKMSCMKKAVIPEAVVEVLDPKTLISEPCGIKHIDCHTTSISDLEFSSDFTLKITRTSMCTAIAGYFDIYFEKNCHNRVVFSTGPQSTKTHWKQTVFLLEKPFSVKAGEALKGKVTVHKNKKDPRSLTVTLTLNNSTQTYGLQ
Method: (§3) The fluorescence-based thermal shift assay was performed using a StepOne plus qPCR instrument (Thermal Fisher). For PRMT1, 10 μM of protein was mixed with 2× sypro orange and DMSO, or 100 μM SAM, or 100 μM YD1113, or 100 μM YD1290 in a buffer consisting of 2.5 mM HEPES (pH=7.0), 25 mM NaCl, 25 μM EDTA, 50 μM TCEP, 0.01% Triton X-100. For PRMT3, 20 μM of protein was mixed with 2× sypro orange and DMSO, or 100 μM SAM, or 100 μM YD1113, or 100 μM YD1290 in a buffer consisting of 20 mM Tris (pH=7.5), 0.01% Triton X-100. For PRMT4, 20 μM of protein was mixed with 2× sypro orange and DMSO, or 100 μM SAM, or 100 μM YD1113, or 100 μM YD1290 in a buffer consisting of 20 mM bicine (pH=8.5), 0.01% Triton X-100. All samples were heated from 25° C. to 75° C. at an increased rate of 0.5° C. per minute. Protein denaturation was monitored by the increased fluorescence signal of Sypro Orange, which captures exposed hydrophobic residues during thermal unfolding. The recorded curves were analyzed by the software StepOne plus and plotted in GraphPad Prism 8 software.
(§4) Next, the thermal shift assay (TSA) was conducted as an orthogonal method to examine the effects of YD1290 on the thermal stability of PRMT1, 3, and 4 (Figure S1).

PRMT1 [5] = target: T2, PRMT1; experiment: thermal shift assay PRMT1; assay type: binding; settings: 100 μM compound, 10 μM protein
Method: as §3, §4

PRMT3 [6] = target: T3, PRMT3; experiment: SAHH-coupled fluorescence assay, inhibition of PRMT3; assay type: biochemical; design: PRMT3 (residues 211-531) was cloned into the pET28a-MHL expression vector; tag of the pET28a-MHL vector (not described); made in house; host or cells: Escherichia coli BL21(DE3)
Summary of the method: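 Coupled SAHH/ThioGlo4 fluorescence read-out (ex 380 nm, em 505 nm) of PRMT3 (0.25 μM) methylation with 30 μM AdoMet and 5 μM SAHH. Buffer was 20 mM Tris pH 7.5 with 0.01% Triton X-100. Run in duplicate.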

IC50 (PRMT4 [1]): 140 ± 13 nM
inhibition at 10 µM (PRMT4 [2]): 97%
inhibition at 10 µM (PRMT1 [3]): 30%
ΔTm at 100 µM (PRMT3 [4]): 5.8 °C
ΔTm at 100 µM (PRMT1 [5]): 0.6 °C
inhibition at 10 µM (PRMT3 [6]): 80%
Structure (SMILES): Nc1ncnc2c1ncn2[C@@H]1O[C@H](CSCCNC(=O)NCc2ccccc2)[C@@H](O)[C@H]1O [Compound 7a, 1-(2-((((2S,3S,4R,5R)-5-(6-amino-9H-purin-9-yl)-3,4-dihydroxytetrahydrofuran-2-yl)methyl)thio)ethyl)-3-benzylurea]
